We go through four molecules from patent publication US5288720A, “Angiotensin II receptor blocking 2,3,6 substituted quinazolinones” (American Cyanamid Company, priority 1993, dated 1994).

The subject of experiment [1] is ANGIOTENSIN II VASOPRESSOR RESPONSE
The experiment in a line: AII Challenge: blockade of angiotensin II vasopressor response in conscious SHR. The experiment is classed as in vivo, rat (Conscious Male Okamoto-Aoki SHR). Particulars: SHR n=2, 3 mg/kg i.v. The source says: By administering a compound of this invention to a rat, and then challenging with angiotensin II, a blockage of the vasopressor response is realized.
Conscious Male Okamoto-Aoki SHR, 16-20 weeks old, weighing approximately 330 g are purchased from Charles River Labs (Wilmington, Mass.). Conscious rats are restrained in a supine position with elastic tape. The area at the base of the tail is locally anesthetized by subcutaneous infiltration with 2% procaine. The ventral caudal artery and vein are isolated, and a cannula made of polyethylene (PE) 10-20 tubing (fused together by heat) is passed into the lower abdominal aorta and vena cava, respectively. The cannula is secured, heparinized (1,000 I.U./ml), sealed and the wound is closed. The animals are placed in plastic restraining cages in an upright position. The cannula is attached to a Statham P23Db pressure transducer, and pulsatile blood pressure is recorded to 10-15 minutes with a Gould Brush recorder. (Chan et al., (Drug Development Res., 18:75-94, 1989).
Angiotensin II (human sequence, Sigma Chem. Co., St. Louis, MO) of 0.05 and 0.1 ug/kg i.v. is injected into all rats (predosing response). Then a test compound, vehicle or a known angiotensin II antagonist is administered i.v., i.p. or orally to each set of rats. The two doses of angiotensin II are given to each rat again at 30, 60, 90, 120, 180, 240 and 300 minutes post dosing the compound or vehicle. The vasopressor response of angiotensin II is measured for the increase in systolic blood pressure in mmHg. The percentage of antagonism or blockade of the vasopressor response of angiotensin II by a compound is calculated using the vasopressor response (increase in systolic blood pressure) of angiotensin II of each rat predosing the compound as 100%. A compound is considered active if at 30 mg/kg i.v. it antagonized at least 50% of the response.

The target of the next experiment is T1, Angiotensin II Receptor (Bos taurus, UniProt P25104).
T1 construct: The brownish tissue forming the adrenal cortex is scraped off and finely minced with scissors before homogenization; from tissue; host or cells: beef adrenal cortex, microsomal membranes (100,000×g pellet); fresh glands from a local slaughter house (Maxwell-Cohen)
T1 sequence (P25104 1-359): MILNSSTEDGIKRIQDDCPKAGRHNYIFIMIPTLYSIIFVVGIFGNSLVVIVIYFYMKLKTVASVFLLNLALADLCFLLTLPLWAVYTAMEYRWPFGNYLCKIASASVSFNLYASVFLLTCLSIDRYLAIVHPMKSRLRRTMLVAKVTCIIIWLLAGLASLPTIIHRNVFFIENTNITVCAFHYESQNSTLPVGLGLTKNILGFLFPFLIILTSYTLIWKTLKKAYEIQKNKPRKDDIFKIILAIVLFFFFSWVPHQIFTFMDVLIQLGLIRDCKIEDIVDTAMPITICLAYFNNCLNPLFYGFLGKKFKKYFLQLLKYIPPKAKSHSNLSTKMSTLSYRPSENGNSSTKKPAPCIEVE
The experiment in a line: Receptor Binding Assay: Binding of [^125 I](Sar^1,Ile^8)AngII to beef adrenal cortex membranes. The note with it: 60 min, room temperature. The source says: Beef adrenals are obtained from a local slaughter house (Maxwell-Cohen). [^125 […]. 2200 Ci/mmole, is purchased from Dupont (NEN®, Boston, Mass.). All unlabeled AngII analogs, Dimethylsulfoxide (DMSO), nucleotides, bovine serum albumin (BSA) are purchased from Sigma Chemical Co., St. Louis, Mo. U.S.A. […] Approximately sixteen (16) to twenty (20) beef adrenal glands are processed as follows: fresh adrenal glands received on crushed ice are cleaned of fatty tissues and the tough membranes encapsulating the glands are removed and discarded. The brownish tissue forming the adrenal cortex is scraped off and finely minced with scissors before homogenization. Care is taken to avoid contamination with medullary tissue during dissection. The scraped cortices are suspended in twenty volumes of an ice-cold buffer medium consisting of 10 mM Tris.HCl (pH 7.4 at 22° C.) and containing 1.0 mM EDTA and 0.2M sucrose. Unless otherwise indicated, all subsequent operations are done at 4° C. […] The homogenate is centrifuged first at low speed (3,000×g) for 10 minutes. […] This P2 pellet is discarded and the liquid phase is carefully decanted off in clean centrifuge tubes and recentrifuged at high speed (100,000×g) for 60 minutes. The translucent final pellet is harvested and combined in a small volume (20-50.0 ml) of 50.0 mM Tris.HCl buffer, pH 7.2. A 100 ul aliquot is withdrawn and the protein content of the preparation is determined by the Lowry's method (Lowry, O. H., Rosebrough, […]. and Randall, R. J., Protein measurement with Folin phenol reagent. J. Biol. Chem., […], 265-275, 1951). The pelleted membrane is reconstituted in 50.0 mM Tris.HCl buffer containing 0.1 mM of phenylmethylsulfonyl fluoride (PMSF) to give approximately a protein concentration of 2.5 mg per ml of tissue suspension. […] Receptor Binding Assay: […] In competition studies, experimental compounds are diluted in dimethylsulfoxide (DMSO) and added in 20 ul to wells before the introduction of tissue membranes. […] Assays are performed in triplicate. The wells are left undisturbed for 60 minutes at room temperature. Following incubation, all wells are harvested at once with a Brandel® Harvester especially designed for a 96 well plate (Brandel® Biomedical Research & Development Labs. Inc., Gaithersburg, Md., U.S.A.). The filter discs are washed with 10×1.0 ml of cold 0.9% NaCl to remove unbound ligand. Presoaking the filter sheet in 0.1% polyethyleneimine in normal saline (PEI/Saline) greatly reduces the radioactivity retained by the filter blanks. This method is routinely used. The filters are removed from the filter grid and counted in a Parkard® Cobra Gamma Counter for 1 minutes. (Packard Instrument Co., Downers Grove, Ill, U.S.A.). The binding data are analyzed by the non-linear interactive "LUNDON-1" program (LUNDON SOFTWARE Inc., Cleveland, Ohio U.S.A.).

Where [2] appears, read: AII 0.01 mcg/kg IV (so in the source), 30 min post dose.
The mark [3] stands for this setting: AII 0.05 mcg/kg IV, 30 min post dose.
Setting [4] is: AII 0.05 mcg/kg IV, 60 min post dose.
[5] abbreviates: AII 0.05 mcg/kg IV, 90 min post dose.
[6] abbreviates: AII 0.05 mcg/kg IV, 120 min post dose.
[7] abbreviates: AII 0.05 mcg/kg IV, 180 min post dose.
Setting [8] is: AII 0.05 mcg/kg IV, 240 min post dose.
Where [9] appears, read: AII 0.05 mcg/kg IV, 300 min post dose.
The mark [10] stands for this setting: AII 0.1 mcg/kg IV, 60 min post dose.
[11] abbreviates: AII 0.1 mcg/kg IV, 90 min post dose.
Where [12] appears, read: AII 0.1 mcg/kg IV, 120 min post dose.
[13] abbreviates: AII 0.1 mcg/kg IV, 180 min post dose.
Setting [14] is: AII 0.1 mcg/kg IV, 240 min post dose.
Setting [15] is: AII 0.1 mcg/kg IV, 300 min post dose.

As for `CCCCc1nc2ccc(C(O)C3CCCS3(=O)=O)cc2c(=O)n1Cc1ccc(-c2ccccc2-c2nn[nH]n2)cc1` (single isomer, unassigned; isomer 1) [Example 15, 2-Butyl-6-[hydroxy(tetrahydro-2-thienyl)methyl-3-[[2'-(1H-tetrazol-5-yl)[1,1'-biphenyl]-4-yl]methyl]-4(3H)-quinazolinone S,S-dioxide isomer 1], the “% Inhibition of AII vasopressor response” value in experiment [1] (setting [2]) is 75%; in experiment [1] (setting [3]), 88%; in experiment [1] (setting [4]), 73%; in experiment [1] (setting [5]) it was 83%; in experiment [1] (setting [6]), 32%; in experiment [1] (setting [7]), 42%. Moreover, the “% Inhibition of AII vasopressor response” value is 38% in experiment [1] (setting [8]); 26% in experiment [1] (setting [9]); 63% in experiment [1] (setting [10]); 54% in experiment [1] (setting [11]); 45% in experiment [1] (setting [12]); 50% in experiment [1] (setting [13]). For the same molecule, the “% Inhibition of AII vasopressor response” value in experiment [1] (setting [14]) was 50%; in experiment [1] (setting [15]), 45%. Further, the “Average Change (systolic blood pressure response to AII)” value (“Average Change” below) in experiment [1] (setting [2]) came to 12.5 mmHg; in experiment [1] (setting [3]), 5 mmHg; in experiment [1] (setting [4]) it was 11 mmHg; in experiment [1] (setting [5]), 7 mmHg; in experiment [1] (setting [6]) it was 27.5 mmHg; in experiment [1] (setting [7]) it was 23.5 mmHg. For the same molecule, the “Average Change” value was 25 mmHg in experiment [1] (setting [8]); 30 mmHg in experiment [1] (setting [9]); 18.5 mmHg in experiment [1] (setting [10]); 23 mmHg in experiment [1] (setting [11]); 27.5 mmHg in experiment [1] (setting [12]); 25 mmHg in experiment [1] (setting [13]). Besides, the “Average Change” value in experiment [1] (setting [14]) worked out at 25 mmHg; in experiment [1] (setting [15]), 27.5 mmHg. Besides, the IC50 (in general, the concentration at which inhibition is half-maximal) on Angiotensin II Receptor amounted to 110 nM.

In the case of `CCCCc1nc2ccc(C(O)C3CCCCN(C)C3=O)cc2c(=O)n1Cc1ccc(-c2ccccc2-c2nn[nH]n2)cc1` (single isomer, unassigned; isomer 1) [Example 54, 2-Butyl-6-[(hexahydro-1-methyl-2-oxo-1H-azepin-3-yl)hydroxymethyl]-3-[[2'-(1H-tetrazol-5-yl)[1,1'biphenyl]-4-yl]methyl-4-(3H)-quinazolinone isomer 1], at Angiotensin II Receptor, the half-maximal inhibitory concentration (IC50) is 430 nM.

With `CCCCc1nc2ccc(C(O)C3CCCCN(C)C3=O)cc2c(=O)n1Cc1ccc(-c2ccccc2-c2nn[nH]n2)cc1` (single isomer, unassigned; isomer 2) [Example 55, 2-Butyl-6-[(hexahydro-1-methyl-2-oxo-1H-azepin-3-yl)hydroxymethyl]-3-[[2'-(1H-tetrazol-5-yl)[1,1'-biphenyl]-4-yl]methyl-4(3H)quinazolinone isomer 2], the half-inhibitory concentration (IC50) at Angiotensin II Receptor came out at 150 nM.

Consider `CCCCc1nc2ccc(C(O)C3CCCO3)cc2c(=O)n1Cc1ccc(-c2ccccc2-c2nn[nH]n2)cc1` (centres unmarked) [Example 28], for which the IC50 at Angiotensin II Receptor was 130 nM.
